The values that follow come from patent publication US4200575A, “7[(2-Thiazolyl)-2-(oxoimino)acetamido]cephalosporin derivatives” (Takeda Chemical Industries, Ltd., priority 1977, dated 1980).

Holding throughout (assay): Minimal inhibitory concentration (M.I.C.), agar dilution method
Details in all cases: TSA, inoculum 10^7 /ml

For experiment [1], the system named is P. morganii IFO 3168. In kind it is cell-based, Proteus morganii. The text has this: (§1) (a) Determination of minimal inhibitory concentrations (Tables 1 to 8):
(§2) Procedure: agar dilution method

Experiment [2] concerns K. pneumoniae DT. It is filed as cell-based, Klebsiella pneumoniae.
From the text: as §1, §2

Experiment [3] relates to K. pneumoniae GN 3835. In kind it is cell-based, Klebsiella pneumoniae.
From the text: as §1, §2

Experiment [4] concerns S. marcescens IFO 12648. In kind it is cell-based, Serratia marcescens.
From the text: as §1, §2

Experiment [5] has as its system S. marcescens TN 24. It is filed as cell-based, Serratia marcescens.
From the text: as §1, §2

Experiment [6] concerns P. mirabilis GN 4359. It is filed as cell-based, Proteus mirabilis.
From the text: as §1, §2

The test system of experiment [7] is P. rettgeri GN4733. It is filed as cell-based, Proteus rettgeri.
From the text: as §1, §2

The test system of experiment [8] is P. rettgeri TN 338. It is filed as cell-based, Proteus rettgeri.
From the text: as §1, §2

In experiment [9] the test system is E. coli 0-111. In kind it is cell-based, Escherichia coli. The essentials: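 MIC against E. coli O-111 was determined by agar dilution.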
Experiment [10] concerns S. aureus 209P. It is filed as cell-based, Staphylococcus aureus.
From the text: as §1, §2

Experiment [11] has as its system S. aureus 1840. In kind it is cell-based, Staphylococcus aureus.
From the text: as §1, §2

Experiment [12] relates to C. freundii GN 99. It is filed as cell-based, Citrobacter freundii.
From the text: as §1, §2

The subject of experiment [13] is C. freundii GN 1706. It is filed as cell-based, Citrobacter freundii.
From the text: as §1, §2

Experiment [14] has as its system E. cloacae TN 1282. It is filed as cell-based, Enterobacter cloacae.
From the text: as §1, §2

Experiment [15] relates to P. vulgaris GN 4413. In kind it is cell-based, Proteus vulgaris.
From the text: as §1, §2

Experiment [16] deals with P. vulgaris IFO 3988. In kind it is cell-based, Proteus vulgaris.
From the text: as §1, §2

For experiment [17], the system named is E. coli NIHJ JC-2. In kind it is cell-based, Escherichia coli.
From the text: as §1, §2

In experiment [18] the test system is E. coli T-7. It is filed as cell-based, Escherichia coli.
From the text: as §1, §2

Bounds are passed on as bounds.

For `CNC(=O)O/N=C(\C(=O)NC1C(=O)N2C(C(=O)O)=C(CSc3nc(CC(=O)O)cs3)CSC12)c1csc(=N)[nH]1` (stereo not drawn) [Example IV - 7], the “minimal inhibitory concentration (M.I.C.)” value in experiment [1] is recorded as 0.78; in [2], ≤ 0.2; in experiment [3], 0.39; in experiment [4], 3.13; in experiment [5], 6.25; in experiment [6], ≤ 0.2. Besides, the “minimal inhibitory concentration (M.I.C.)” value in experiment [7] was 0.39; in experiment [8] it was ≤ 0.2; in experiment [9] it was ≤ 0.2; in [10], 12.5; in experiment [11], 12.5; in experiment [12], 0.78. Moreover, the “minimal inhibitory concentration (M.I.C.)” value was 3.13 in [13]; 12.5 in experiment [14]; 50 in [15]; ≤ 0.2 in [16]; 0.78 in [17]; 6.25 in experiment [18].
For the molecule `CC(C)NC(=O)O/N=C(\C(=O)NC1C(=O)N2C(C(=O)O)=C(CSc3nnnn3C)CSC12)c1csc(=N)[nH]1` (stereo not drawn) [Example II - 18], the “minimal inhibitory concentration (M.I.C.)” value turned out to be 0.78 in experiment [1]; 0.1 in experiment [2]; 1.56 in [3]; 3.13 in [4]; 3.13 in [5]; 0.39 in experiment [6]. Further, the “minimal inhibitory concentration (M.I.C.)” value in experiment [7] is 0.2; in experiment [8], ≤ 0.012; in experiment [9], 0.024; in experiment [10], 1.56; in [11], 3.13; in [12], 0.39. The “minimal inhibitory concentration (M.I.C.)” value is 0.78 in experiment [13]; 3.13 in [14]; 25 in experiment [15]; 0.1 in experiment [16]; 0.2 in experiment [17]; 3.13 in [18].
In the case of `CCCCNC(=O)O/N=C(\C(=O)NC1C(=O)N2C(C(=O)O)=C(COC(C)=O)CSC12)c1csc(=N)[nH]1` (stereo not drawn) [Example II - 20], the “minimal inhibitory concentration (M.I.C.)” value was 0.39 in experiment [1]; 0.05 in [2]; 0.39 in experiment [3]; 6.25 in experiment [4]; 12.5 in experiment [5]; 0.1 in experiment [6]. In addition, the “minimal inhibitory concentration (M.I.C.)” value was 0.05 in [7]; ≤ 0.012 in experiment [8]; 0.024 in experiment [9]; 1.56 in [10]; 1.56 in experiment [11]; 0.39 in [12]. Moreover, the “minimal inhibitory concentration (M.I.C.)” value was found to be 0.39 in experiment [13]; 6.25 in experiment [14]; 12.5 in experiment [15]; 0.2 in experiment [16]; 0.1 in experiment [17]; 3.13 in [18].
For `CNC(=O)O/N=C(\C(=O)NC1C(=O)N2C(C(=O)O)=C(CSc3nnc(C)o3)CSC12)c1csc(=N)[nH]1` (stereo not drawn) [Example IV - 10], the “minimal inhibitory concentration (M.I.C.)” value in experiment [1] is reported as 0.39; in [2] it was ≤ 0.2; in [3], 0.78; in [4], 6.25; in experiment [5], 6.25; in experiment [6], 0.39. The “minimal inhibitory concentration (M.I.C.)” value in [7] is listed as 0.78; in experiment [8] it was ≤ 0.2; in experiment [9], ≤ 0.2; in [10], 1.56; in experiment [11] it was 3.13; in [12], 0.39. In addition, the “minimal inhibitory concentration (M.I.C.)” value in experiment [13] was determined as 0.78; in experiment [14], 3.13; in [15], 25; in experiment [16], 0.39; in experiment [17], 0.39; in experiment [18], 6.25.
On to `CNC(=O)O/N=C(\C(=O)NC1C(=O)N2C(C(=O)O)=C(CSc3nnc(CO)n3C)CSC12)c1csc(=N)[nH]1` (stereo not drawn) [Example IV - 5], for which the “minimal inhibitory concentration (M.I.C.)” value in [1] was 0.39; in experiment [2], ≤ 0.2; in experiment [3] it was 0.39; in [4] it was 3.13; in [5], 3.13; in experiment [6], 0.39. Further, the “minimal inhibitory concentration (M.I.C.)” value was 0.78 in [7]; ≤ 0.2 in [8]; ≤ 0.2 in [9]; 6.25 in experiment [10]; 6.25 in experiment [11]; 0.39 in [12]. Moreover, the “minimal inhibitory concentration (M.I.C.)” value in [13] is recorded as 0.78; in [14] it was 3.13; in experiment [15], 25; in [16], 0.39; in experiment [17], ≤ 0.2; in experiment [18] it was 1.56.
In the case of `CCNC(=O)O/N=C(\C(=O)NC1C(=O)N2C(C(=O)O)=C(CSc3nnnn3C)CSC12)c1csc(=N)[nH]1` (stereo not drawn) [Example II - 9], the “minimal inhibitory concentration (M.I.C.)” value worked out at 1.56 in experiment [1]; 0.1 in [2]; 0.78 in [3]; 3.13 in experiment [4]; 3.13 in experiment [5]; 0.39 in experiment [6]. In addition, the “minimal inhibitory concentration (M.I.C.)” value in experiment [7] was 0.2; in experiment [8], ≤ 0.012; in experiment [9], 0.05; in experiment [10] it was 1.56; in [11], 3.13; in experiment [12] it was 0.2. Further, the “minimal inhibitory concentration (M.I.C.)” value is reported as 0.78 in experiment [13]; 6.25 in experiment [14]; 25 in experiment [15]; 0.2 in experiment [16]; 0.39 in experiment [17]; 3.13 in [18].
